Entries after “also recorded” stand apart in the source; their conditions may differ. Where two headings read alike, the source gives them in different places.

One data set has as its system atrial fibrillation. Put plainly: D-ribose administered to patients with a diagnosis of atrial fibrillation. The format is in vivo, human. The protocol: Eight patients with a diagnosis of atrial fibrillation were administered D-ribose. It can be seen from the above data that not all patients are completely and immediately relieved of atrial fibrillation. […] Therefore, it is recommended that patients ingest 10 to 15 grams of D-ribose daily.

The conditions of data set [1]: cited from earlier work.

Turning to `O=C[C@H](O)[C@H](O)[C@H](O)CO` [D-ribose], the “Relief?” value with atrial fibrillation (Patient 1, duration of AT Recent, daily amount N/R, other medication CoQ) was “complete, immediate”; in the data set on atrial fibrillation (Patient 2, duration, daily amount and other medications N/R), “complete, immediate”; in the data set on atrial fibrillation (Patient 3, 5 grams D-ribose daily) it was “only partial relief; also recorded: “helped””; with atrial fibrillation (Patient 4, 5 grams D-ribose daily) it was “delayed relief; also recorded: complete, within two”; in the data set with atrial fibrillation (Patient 5, duration 20 years, 10 grams D-ribose daily, CoQ, L-carnitine, Mg), “complete and immediate relief”; in the data set with atrial fibrillation (Patient 6, 10-15 grams D-ribose daily), “complete and immediate relief; also recorded: “practically”. For the same compound, the “Relief?” value in the data set on atrial fibrillation (Patient 7, 5 grams D-ribose daily) is reported as “complete, immediate”. The Side effects entry in the data set with atrial fibrillation (administration of low doses of D-ribose) is reported as “no side effects”. The “Persistence of relief of atrial fibrillation” value in the data set on atrial fibrillation (patients on continued D-ribose) is “more than a year”. In addition, the Digestive symptoms result in data set [1] (dose of five grams, most people) is “without experiencing these digestive symptoms”; in data set [1] (doses over about eight grams, many people) it was “flatulence and diarrhea”.

The record behind these values is patent publication US8101581B2, “Use of D-ribose to treat cardiac arrhythmias” (Bioenergy, Inc., priority 2007, dated 2012).
